From the supplement of paper PMC10307832

Tests used:
Experiment in all cases: relative viability (nuclei count vs DMSO), 5 days (fraction); higher = more cells survive
Bemcentinib + Foretinib = compound: Nc1nc(Nc2ccc3c(c2)CC[C@@H](N2CCCC2)CC3)nn1-c1cc2c(nn1)-c1ccccc1CCC2 [Bemcentinib] + COc1cc2c(Oc3ccc(NC(=O)C4(C(=O)Nc5ccc(F)cc5)CC4)cc3F)ccnc2cc1OCCCN1CCOCC1 [Foretinib] (partner 0.25 µM)
In short: (§1)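 Lung cancer cell lines were seeded in 1536-well plates and dosed by pin tool the next day, with either a single drug or a fixed anchor-drug dose combined with five library-drug doses (not always all listed) spaced in √10 steps. Five days later, one step fixed the cells and stained their nuclei (final 0.05% Triton X-100, 1% formaldehyde, 1 ug/ml Hoechst), and nuclei were counted on 4× images. Relative viability is the nuclei count in treated wells divided by the count in vehicle wells, and each value is the median of duplicate plates.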

[1] = compound: CC1=CC=C(C=C1)C(=O)CN2C3=C(CCCC3)SC2=N [Pifithrin_alpha] + COc1cc2c(Oc3ccc(NC(=O)C4(C(=O)Nc5ccc(F)cc5)CC4)cc3F)ccnc2cc1OCCCN1CCOCC1 [Foretinib] (partner 0.25 µM)
In short: as §1

[2] = compound: CC1=CC=C(C=C1)C(=O)CN2C3=C(CCCC3)SC2=N [Pifithrin_alpha] + CC(=O)Nc1cccc(-n2c(=O)n(C3CC3)c(=O)c3c(Nc4ccc(I)cc4F)n(C)c(=O)c(C)c32)c1 [Trametinib] (partner 0.02 µM)
In short: as §1

[3] = compound: CC1=CC=C(C=C1)C(=O)CN2C3=C(CCCC3)SC2=N [Pifithrin_alpha] + Cc1cc(Nc2cc(N3CCN(C)CC3)nc(Sc3ccc(NC(=O)C4CC4)cc3)n2)n[nH]1 [Tozasertib] (partner 0.1 µM)
In short: as §1

Cell Line	relative viability (Bemcentinib + Foretinib; first compound 0.04 µM)	relative viability (Bemcentinib + Foretinib; first compound 0.1265 µM)	relative viability (Bemcentinib + Foretinib; first compound 0.4 µM)	relative viability (Bemcentinib + Foretinib; first compound 4 µM)	relative viability ([1]; first compound 3.162 µM)	relative viability ([1]; first compound 10 µM)	relative viability ([1]; first compound 31.62 µM)	relative viability ([1]; first compound 100 µM)	relative viability ([2]; first compound 1 µM)	relative viability ([2]; first compound 3.162 µM)	relative viability ([2]; first compound 10 µM)	relative viability ([2]; first compound 31.62 µM)	relative viability ([2]; first compound 100 µM)	relative viability ([3]; first compound 3.162 µM)	relative viability ([3]; first compound 10 µM)	relative viability ([3]; first compound 31.62 µM)	relative viability ([3]; first compound 100 µM)	relative viability ([1]; first compound 1 µM)	relative viability ([3]; first compound 1 µM)	relative viability (Bemcentinib + Foretinib; first compound 1.265 µM)
NCI-H1793	0.816	0.726	0.772	0.693	0.539	0.61	0.642	0.483	0.419	0.371	0.365	0.496	0.437	0.272	0.277	0.276	0.218			
HCC-78	0.578	0.486	0.555	0.562	0.551	0.486	0.467	0.523		0.774	0.71	0.541	0.598	0.543	0.423	0.35	0.404	0.592	0.56	
NCI-H322M	0.939	1.01	0.919	0.97	1.03	0.964	0.929	0.839	0.436	0.307	0.514	0.509	0.539	0.483	0.493	0.449	0.486	0.91	0.51	1.11
COR-L23	0.949	1.23	0.969	0.999	0.987	0.97		0.928	0.517	0.709	0.638		0.539	0.15	0.152		0.13	0.955	0.168	1.08
201T	1.07	1.33	1.24	1.11	0.745	0.684	0.627	0.681	0.752	0.616	0.61	0.529	0.518	0.679	0.729	0.57	0.638	0.928	0.991	1.12
NCI-H2347	0.831	0.847	0.891	0.763		1.05	0.689	0.804	0.301	0.335	0.24	0.293	0.221	0.543	0.382	0.412	0.501	0.684	0.614	0.834
LCLC-97TM1	0.941	0.97	0.929	1.02	1.08	0.934	0.496	0.909		0.167	0.191		0.18	0.178	0.177	0.148	0.217	0.954	0.293	0.964
NCI-H2126	1.25	1.43	1.37	1.23	0.988	0.946	0.96	1.1	0.456	0.503	0.487	0.445	0.452	0.772	0.602	0.596	0.432		0.568	1.13
NCI-H1944	0.876	0.924	0.866	0.865	0.713	0.732	0.47	0.677	0.395	0.358	0.368	0.319	0.374	0.225	0.23	0.191	0.19	0.816	0.236	0.951
HCC-15	1.11	1.18	1.11	1.11	1.05	0.93	0.731	0.789	0.373	0.33	0.348	0.315	0.256	0.544	0.245	0.212	0.165	1.08	0.463	1.04
NCI-H2405	1.05	1.02	1.03	1.04	0.974	0.907	0.884	0.784		0.604	0.544	0.567	0.601	0.697	0.573	0.573	0.627	1.01	0.708	1.12
COR-L 105	1.43	1.27	1.01	0.993	0.976	1.13	0.897	0.734	0.259	0.424	0.432	0.421	0.454	0.358	0.368	0.31	0.316	1.08	0.346	0.856
ABC-1	1.05	1.18	1	0.897	1.11	1.03	0.942	0.724						0.167	0.188	0.229	0.173	1.16	0.204	0.899
HCC-366	0.888	0.952	0.946	0.941	0.906	0.915		0.527	0.249	0.248	0.238		0.187	0.0593	0.0876		0.0623	0.896	0.0661	0.914
NCI-H1623	0.857	0.742	0.853	0.934	0.811	0.759	0.628	0.669						0.528	0.432	0.358	0.349	0.825	0.42	1.01
NCI-H2342	1.04	1.12	1.09	1.13	1.01	0.953	1.09	1.01	0.856	0.734	0.811	0.772	0.843	0.486	0.494	0.453	0.454	1.14	0.514	1.06
NCI-H2085	1.08	1.11	0.915	0.889	1.11	1.07	0.78	0.844	0.452	0.444	0.461	0.463	0.445	0.467	0.427	0.478	0.489		0.828	1.01
BEN	0.562	0.731	0.711	0.635	0.736	0.697	0.508	0.625	1.13	0.993	1.12	1.14	1.29	0.684	0.534	0.443	0.514	0.357		0.612
LCLC-103H	0.752	0.787	0.778	0.825	0.787	0.84	0.514	0.824	0.681	0.597	0.646	0.623	0.702	0.452	0.485	0.396	0.46	0.729	0.462	0.918
NCI-H520	0.957	0.748	0.911	0.791	1.17	0.852	0.528	0.81	0.777	0.652	0.785	0.535	0.741	0.438	0.364		0.421	0.793	0.446	0.685

Cell Line	relative viability (Bemcentinib + Foretinib; first compound 0.04 µM)	relative viability (Bemcentinib + Foretinib; first compound 0.1265 µM)	relative viability (Bemcentinib + Foretinib; first compound 0.4 µM)	relative viability (Bemcentinib + Foretinib; first compound 4 µM)	relative viability ([1]; first compound 3.162 µM)	relative viability ([1]; first compound 10 µM)	relative viability ([1]; first compound 31.62 µM)	relative viability ([1]; first compound 100 µM)	relative viability ([2]; first compound 1 µM)	relative viability ([2]; first compound 3.162 µM)	relative viability ([2]; first compound 10 µM)	relative viability ([2]; first compound 31.62 µM)	relative viability ([2]; first compound 100 µM)	relative viability ([3]; first compound 3.162 µM)	relative viability ([3]; first compound 10 µM)	relative viability ([3]; first compound 31.62 µM)	relative viability ([3]; first compound 100 µM)	relative viability ([1]; first compound 1 µM)	relative viability ([3]; first compound 1 µM)	relative viability (Bemcentinib + Foretinib; first compound 1.265 µM)
NCI-H1975	0.982	0.995	0.995	1.04	0.8	0.572	0.55	0.568	0.251	0.29	0.232	0.275	0.252	0.431	0.181	0.141	0.203	0.869	0.592	0.865
NCI-H1355	0.958	1.12	1.03	0.98	0.743	0.663	0.587	0.65	0.39	0.362	0.298	0.31	0.282	0.389	0.328	0.302	0.294	0.949	0.471	1.04
IA-LM	1.08	1.25	0.985	1.09	0.975	0.469	0.445	0.604										1.07		1.08
H3255	0.897	0.857	0.766	0.724	0.949	0.827	0.777	0.92	0.578	0.831	0.546	0.421	0.442	0.896	0.574	0.572	0.708	0.716	0.642	0.892
NCI-H1915	1.11	1.08	1.15	1.17	1.15			1.12	0.291	0.296	0.302		0.308	0.465			0.399	1.09	0.454	1.07
NCI-H2023	0.824	1.09	0.936	0.686		0.578		0.523	0.512	0.386	0.324	0.213	0.214	0.177	0.209		0.167	0.969	0.247	0.731
NCI-H3122		1.06	0.972	0.948	0.927	0.854		0.891	0.254	0.296	0.25	0.213	0.286	0.325	0.375		0.44	0.932	0.438	0.943
SK-MES-1	1.11	0.968	0.952	1.11	0.817	0.857	0.588	0.604	0.593	0.518	0.462	0.36	0.403	0.749	0.613	0.392	0.404	0.763	0.805	1.11
NCI-H1650	1.12	1.1	0.969	1.32	1.2	1.04	0.837	0.853	0.563	0.523	0.451	0.375	0.39	0.346	0.22	0.261	0.31			0.885
NCI-H1792									0.498	0.389	0.432		0.316							
NCI-H1648									0.487	0.332	0.453	0.48	0.422	0.513	0.393	0.47	0.421		0.592	
HCC-44									0.945	0.846	0.727	0.786	0.747	1.07	0.685	0.461	0.452		0.748	
Calu-6	0.93	0.938	0.947	0.905	0.883	0.76	0.636	0.706										0.952		0.917
NCI-H1563	0.998	0.999	0.975	0.949	0.912	0.875	0.881	0.81										0.879		0.897
EBC-1	0.0932	0.0983	0.108	0.103	0.0947	0.0856	0.0979	0.0988										0.0836		0.0894
NCI-H1703		0.336	0.377	0.334	0.336	0.374	0.34	0.266										0.285		0.312
NCI-H1299	1.09	1.13	1.13	1.09	1.14	1.07	0.889	1.07										1.04		1.13
NCI-H522									0.61	0.754	0.743	0.693	0.618	0.55	0.592	0.522	0.593		0.585	
A549	0.95	1.03	0.977	1.11	0.958	1.1	0.874	0.959										1.1		1.08
